According to US8937089B2, “Synergistic mixtures of anthranilamide invertebrate pest control agents” (priority 2004, dated 2015):

Assays:
Experiment in all cases: whole plant or invertebrate
Format in all cases: in vivo
[1] = system: cotton melon aphid (Aphis gossypii Glover)
Procedure, shortened: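 Sprays in acetone–water with 300 ppm non-ionic surfactant, at ppm concentrations, applied to aphid-infested (30–40 per plant) 6–7-day cotton, in triplicate. Evaluation after 6 days in a growth chamber at 19–21 °C and 50–70% relative humidity, covering contact and/or systemic action.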

[2] = system: potato leafhopper (Empoasca fabae Harris); settings: alone; for mortality at 10 ppm / mortality at 100 ppm / mortality at 1000 ppm: Empoasca fabae, read-out: % mortality (obs); for mortality at 10 ppm: rate 10 ppm; for mortality at 100 ppm: rate 100 ppm
Procedure, shortened: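 Contact and/or systemic test: five adult leafhoppers aged 18–21 days were released onto Longio bean plants 1 h after spraying. The spray was 1 mL per unit in acetone/water (10:90) with 300 ppm non-ionic surfactant, run in triplicate. Plants were kept 6 days in a growth chamber at 19–21 °C and 50–70% humidity.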

[3] = system: green peach aphid (Myzus persicae Sulzer); settings: Green Peach Aphid; for mortality at 10 ppm / mortality at 100 ppm / mortality at 1000 ppm: Myzus persicae, in Raphanus sativus, read-out: % mortality (obs); for mortality at 10 ppm: rate 10 ppm; for mortality at 100 ppm: rate 100 ppm
Procedure, shortened: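 Compounds formulated in 10% acetone/water with 300 ppm X-77 surfactant were atomized onto aphid-infested radish seedlings, with three replicates per treatment. Infestation was 30–40 aphids transferred on excised leaf pieces, covering contact and systemic exposure. Test units stayed 6 days in a growth chamber at 19–21 °C and 50–70% relative humidity.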

[4] = system: corn planthopper (Peregrines maidis); settings: Corn Plant Hopper
Procedure, shortened: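 Contact/systemic test on corn planthopper: 10–20 nymphs (18- to 20-day-old) released onto young maize plants 1 h after spraying, with three replicate units per treatment. Spray solution was acetone/water 10:90 containing 300 ppm non-ionic spreader; units kept 6 days at 19-21° C., 50-70% RH.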

[5] = system: silverleaf whitefly (Bemisia argentifolii Bellows and Perring); settings: Table 2B
Procedure, shortened: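 Whitefly-egg-infested 12–14-day-old cotton plants sprayed with compound in 10% acetone/90% water plus 300 ppm non-ionic surfactant, in triplicate. Plants then held 13 days at 28 °C and 50–70% relative humidity before mortality assessment.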

[6] = system: western flower thrip (Frankliniella occidentalis Pergande); settings: single compound, spray, 7 days; for mortality at 10 ppm / mortality at 100 ppm / mortality at 1000 ppm: Frankliniella occidentalis, 168 h, read-out: % mortality (obs); for mortality at 10 ppm: rate 10 ppm
Procedure, shortened: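 Bean plants aged 5–7 days received a spray of test solution (10% acetone, 90% water, 300 ppm surfactant), in triplicate. Adult thrips (22–27 per unit) were introduced once the plants had dried for 1 h. Incubation lasted 7 days at 25° C and 45–55% RH.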

For Chlorfenapyr, the “% mortality (obs)” value ([1]; rate 1 ppm) was 27%, the “% mortality (obs)” value ([1]; rate 10 ppm) was 57% and the “% mortality (obs)” value ([1]; rate 150 ppm) was 67%. The “% mortality (obs)” value ([2]; rate 1 ppm) was 73%, the “% mortality (obs)” value ([2]; rate 5 ppm) was 100% and the “% mortality (obs)” value ([2]; rate 20 ppm) was 100%. The “% mortality (obs)” value ([3]; rate 1.5 ppm) was 22%, the “% mortality (obs)” value ([3]; rate 7 ppm) was 36% and the “% mortality (obs)” value ([3]; rate 35 ppm) was 100%. The “% mortality (obs)” value ([4]; rate 1.5 ppm) was 31%, the “% mortality (obs)” value ([4]; rate 2.5 ppm) was 15% and the “% mortality (obs)” value ([4]; rate 3.5 ppm) was 11%. The “% mortality (obs)” value ([5]; rate 10 ppm) was 6%, the “% mortality (obs)” value ([5]; rate 100 ppm) was 14% and the “% mortality (obs)” value ([5]; rate 1000 ppm) was 18%. For the same compound, the “% mortality (obs)” value ([6]; rate 5 ppm) was 40%, the “% mortality (obs)” value ([6]; rate 20 ppm) was 70% and the “% mortality (obs)” value ([6]; rate 150 ppm) was 90%.

CCOC(=O)NCCOc1ccc(Oc2ccccc2)cc1 [Fenoxycarb] was tested, and the mortality at 10 ppm ([1]; Aphis gossypii, rate 10 ppm, read-out: % mortality (obs)) was 16%, the mortality at 100 ppm ([1]; Aphis gossypii, rate 100 ppm, read-out: % mortality (obs)) was 23% and the mortality at 1000 ppm ([1]; Aphis gossypii, rate 1000 ppm, read-out: % mortality (obs)) was 34%. For the same compound, the mortality at 10 ppm [2] was 0%, the mortality at 100 ppm [2] was 20% and the mortality at 1000 ppm ([2]; rate 1000 ppm) was 0%. The mortality at 10 ppm [3] was 17%, the mortality at 100 ppm [3] was 16% and the mortality at 1000 ppm ([3]; rate 1000 ppm) was 18%. For the same compound, the mortality at 10 ppm ([4]; rate 10 ppm, read-out: % mortality (obs)) was 8%, the mortality at 100 ppm ([4]; rate 100 ppm, read-out: % mortality (obs)) was 2% and the mortality at 1000 ppm ([4]; rate 1000 ppm, read-out: % mortality (obs)) was 5%. For the same compound, the mortality at 2 ppm ([5]; Bemisia argentifolii, in Gossypium hirsutum, rate 2 ppm, read-out: % mortality (obs)) was 0%, the mortality at 10 ppm ([5]; Bemisia argentifolii, in Gossypium hirsutum, rate 10 ppm, read-out: % mortality (obs)) was 0% and the mortality at 20 ppm ([5]; Bemisia argentifolii, in Gossypium hirsutum, rate 20 ppm, read-out: % mortality (obs)) was 21%. For the same compound, the mortality at 10 ppm [6] was 40%, the mortality at 100 ppm ([6]; rate 100 ppm) was 70% and the mortality at 1000 ppm ([6]; rate 1000 ppm) was 60%.

For CS/C(C)=N\OC(=O)N(C)SN(C)C(=O)O/N=C(\C)SC [Thiodicarb], the “% mortality (obs)” value ([1]; rate 3 ppm) was 49%, the “% mortality (obs)” value ([1]; rate 10 ppm) was 32% and the “% mortality (obs)” value ([1]; rate 30 ppm) was 69%. For the same compound, the “% mortality (obs)” value ([2]; rate 0.08 ppm) was 0%, the “% mortality (obs)” value ([2]; rate 0.16 ppm) was 20% and the “% mortality (obs)” value ([2]; rate 0.4 ppm) was 20%. For the same compound, the “% mortality (obs)” value ([3]; rate 20 ppm) was 10%, the “% mortality (obs)” value ([3]; rate 150 ppm) was 17% and the “% mortality (obs)” value ([3]; rate 900 ppm) was 98%. For the same compound, the “% mortality (obs)” value ([4]; rate 0.08 ppm) was 2%, the “% mortality (obs)” value ([4]; rate 0.16 ppm) was 6% and the “% mortality (obs)” value ([4]; rate 0.4 ppm) was 7%. For the same compound, the “% mortality (obs)” value ([5]; rate 100 ppm) was 1%, the “% mortality (obs)” value ([5]; rate 1000 ppm) was 0% and the “% mortality (obs)” value ([5]; rate 3000 ppm) was 6%. The “% mortality (obs)” value ([6]; rate 20 ppm) was 60% and the “% mortality (obs)” value ([6]; rate 200 ppm) was 80%.

CCN(Cc1ccc(Cl)nc1)/C(=C/[N+](=O)[O-])NC [Nitenpyram] was tested, and the “% mortality (obs)” value ([1]; rate 0.2 ppm) was 29%, the “% mortality (obs)” value ([1]; rate 0.4 ppm) was 49% and the “% mortality (obs)” value ([1]; rate 0.6 ppm) was 71%. The “% mortality (obs)” value ([2]; rate 0.3 ppm) was 7%, the “% mortality (obs)” value ([2]; rate 0.4 ppm) was 73% and the “% mortality (obs)” value ([2]; rate 0.5 ppm) was 33%. For the same compound, the “% mortality (obs)” value ([3]; rate 0.2 ppm) was 7%, the “% mortality (obs)” value ([3]; rate 0.4 ppm) was 17% and the “% mortality (obs)” value ([3]; rate 0.6 ppm) was 40%. The “% mortality (obs)” value ([4]; rate 0.1 ppm) was 27%, the “% mortality (obs)” value ([4]; rate 0.2 ppm) was 100% and the “% mortality (obs)” value ([4]; rate 0.3 ppm) was 100%. The “% mortality (obs)” value ([5]; rate 20 ppm) was 53%, the “% mortality (obs)” value ([5]; rate 30 ppm) was 84% and the “% mortality (obs)” value ([5]; rate 40 ppm) was 85%. For the same compound, the “% mortality (obs)” value ([6]; rate 5 ppm) was 20%, the “% mortality (obs)” value ([6]; rate 50 ppm) was 50% and the “% mortality (obs)” value ([6]; rate 500 ppm) was 80%.

Work on CCOP(=S)(OCC)Oc1nc(Cl)c(Cl)cc1Cl [Chlorpyrifos] yielded a mortality at 1 ppm ([1]; Aphis gossypii, rate 1 ppm, read-out: % mortality (obs)) of 26%, a mortality at 5 ppm ([1]; Aphis gossypii, rate 5 ppm, read-out: % mortality (obs)) of 14% and a mortality at 50 ppm ([1]; Aphis gossypii, rate 50 ppm, read-out: % mortality (obs)) of 13%. For the same compound, the mortality at 10 ppm [2] was 13%, the mortality at 100 ppm [2] was 0% and the mortality at 1000 ppm ([2]; rate 1000 ppm) was 7%. It also gave a mortality at 10 ppm [3] of 5%, a mortality at 100 ppm [3] of 18% and a mortality at 1000 ppm ([3]; rate 1000 ppm) of 9%. The mortality at 0.1 ppm ([4]; rate 0.1 ppm, read-out: % mortality (obs)) was 46%, the mortality at 0.2 ppm ([4]; rate 0.2 ppm, read-out: % mortality (obs)) was 24% and the mortality at 0.3 ppm ([4]; rate 0.3 ppm, read-out: % mortality (obs)) was 19%. It also gave a mortality at 500 ppm ([5]; Bemisia argentifolii, in Gossypium hirsutum, rate 500 ppm, read-out: % mortality (obs)) of 0%, a mortality at 1000 ppm ([5]; Bemisia argentifolii, in Gossypium hirsutum, rate 1000 ppm, read-out: % mortality (obs)) of 0% and a mortality at 2000 ppm ([5]; Bemisia argentifolii, in Gossypium hirsutum, rate 2000 ppm, read-out: % mortality (obs)) of 0%. For the same compound, the mortality at 10 ppm [6] was 20%, the mortality at 100 ppm ([6]; rate 100 ppm) was 10% and the mortality at 1000 ppm ([6]; rate 1000 ppm) was 10%.

Novaluron was tested, and the “% mortality (obs)” value ([1]; rate 50 ppm) was 28%, the “% mortality (obs)” value ([1]; rate 250 ppm) was 30% and the “% mortality (obs)” value ([1]; rate 1000 ppm) was 29%. The “% mortality (obs)” value ([2]; rate 250 ppm) was 7%, the “% mortality (obs)” value ([2]; rate 500 ppm) was 7% and the “% mortality (obs)” value ([2]; rate 1000 ppm) was 0%. The “% mortality (obs)” value ([3]; rate 250 ppm) was 14%, the “% mortality (obs)” value ([3]; rate 500 ppm) was 24% and the “% mortality (obs)” value ([3]; rate 1000 ppm) was 25%. For the same compound, the “% mortality (obs)” value ([4]; rate 250 ppm) was 7%, the “% mortality (obs)” value ([4]; rate 500 ppm) was 5% and the “% mortality (obs)” value ([4]; rate 1000 ppm) was 100%. The “% mortality (obs)” value ([5]; rate 2 ppm) was 2%, the “% mortality (obs)” value ([5]; rate 10 ppm) was 0% and the “% mortality (obs)” value ([5]; rate 250 ppm) was 28%. The “% mortality (obs)” value ([6]; rate 1 ppm) was 50%, the “% mortality (obs)” value ([6]; rate 100 ppm) was 50% and the “% mortality (obs)” value ([6]; rate 1000 ppm) was 80%.
